According to patent US11708413B2 (priority 2016, dated 2023):

Experiments:
[1] = system: JVM-13 (CLL) cells; assay: cells; format: cell-based; conditions: JVM13; JVM-13 (CLL) cells; 72 hrs, Cell Titer-Glo; NK = no killing; read-out: Cell Killing Activity IC50
Method: (§1) Cell lines tested included B-lymphoma, multiple myeloma, and leukemia cells.
(§2) Cytotoxicity effects of the free drug linkers and conjugates were measured with a cell proliferation assay. A total of 12500 cells in a volume of 25 μl were seeded in a 384-well flat bottom white polystyrene plate on the day of assay. Free drug-linkers and conjugates were formulated at 2× starting concentration (1000 nM for free drug linkers and 100 nM for ADCs) in RPMI medium and filtered through MultiScreen HTS 96-Well Filter Plates (Millipore). Filter sterilized samples were serial diluted (1:3) under sterile conditions and added into treatment wells. Plates were cultured at 37° C. in a CO2 incubator for 72 hrs. For cell viability measurement, 30 μl of Cell Titer-Glo® reagent (Promega Corp.) was added into each well, and plates processed as per product instructions. Relative luminescence was measured on an ENVISION® plate reader (Perkin-Elmer; Waltham, Mass.). Relative luminescence readings were converted to % viability using untreated cells as controls. Data was fitted with non-linear regression analysis, using log(inhibitor) vs. response, variable slope, 4 parameter fit equation using GraphPad Prism. Data was expressed as % relative cell viability vs. dose of free drug-linker or conjugate in nM.
as §1

[2] = system: SUP-B15 (ALL) cells; assay: cells; format: cell-based; conditions: Homo sapiens; SUP-B15 (ALL) cells; 72 hrs, Cell Titer-Glo; NK = no killing; read-out: Cell Killing Activity IC50
Method: as §1, §2, §1

[3] = system: RPMI-6666 (HL) cells; assay: cells; format: cell-based; conditions: Homo sapiens; RPMI-6666 (HL) cells; 72 hrs, Cell Titer-Glo; NK = no killing; read-out: Cell Killing Activity IC50
Method: as §1, §2, §1

[4] = system: BDCM (AML) cells; assay: cells; format: cell-based; conditions: BDCM (AML) cells; 72 hrs, Cell Titer-Glo; NK = no killing; read-out: Cell Killing Activity IC50
Method: as §1, §2, §1

[5] = system: ARD (MM) cells; assay: cells; format: cell-based; conditions: ARD (MM) cells, 72 hrs, Cell Titer-Glo, NK = no killing
Method: as §1, §2, §1

[6] = system: K562 (CML) cells; assay: Cell killing assay (cell proliferation, Cell Titer-Glo), K562 (CML); format: cell-based; conditions: Homo sapiens, 72 hrs, NK = no killing
Method: as §1, §2
(§3) Each of Conjugates A-F was evaluated for the ability to bind and kill cells expressing CD74. […]

[7] = system: SU-DHL-6 (NHL) cells; assay: cells; format: cell-based, human; conditions: Homo sapiens; SU-DHL-6 (NHL) cells; 72 hrs, Cell Titer-Glo; NK = no killing; read-out: Cell Killing Activity IC50
Method: as §1, §2, §1

[8] = system: RPMI-8226 (MM) cells; assay: cells; format: cell-based; conditions: Homo sapiens; RPMI-8226 (MM) cells; 72 hrs, Cell Titer-Glo; NK = no killing; read-out: Cell Killing Activity IC50
Method: as §1, §2
Each of Conjugates A-F was evaluated for the ability to bind and kill cells expressing CD74. Cell lines tested included B-lymphoma, multiple myeloma, and leukemia cells. Controls included unconjugated anti-CD74 antibody.

[9] = system: OPM-2 (MM) cells; assay: Cell killing assay (cell proliferation, Cell Titer-Glo), OPM-2 (MM); format: cell-based; conditions: Homo sapiens, 72 hrs, NK = no killing
Method: as §1, §2, §3

## COc1cc2cc(c1Cl)N(C)C(=O)C[C@H](OC(=O)[C@H](C)N(C)C(=O)CCCC(=O)N(C)CCOCCOCCOCCOCCC(=O)NCCC(=O)N1Cc3ccccc3C#Cc3ccccc31)[C@]1(C)O[C@H]1[C@H](C)[C@@H]1C[C@@](O)(NC(=O)O1)[C@H](OC)/C=C/C=C(/C)C2 [Free Linker-Drug, DBCO-PEG4-maytansine, reference compound]
[1]
  IC50: 25 nM
[2]
  IC50: 11 nM
[3]
  IC50: ~13 nM
[4]
  IC50: 13 nM
[5]
  Cell Killing Activity Span: 40%
[5]; read-out: Cell Killing Activity IC50
  IC50: ~34 nM
[6]
  IC50: 60 nM
[7]
  IC50: 15 nM
[8]
  IC50: 18 nM
[9]
  IC50: 24 nM
